The values that follow come from article PMC4571936, “Pre-steady-state Kinetic Analysis of a Family D DNA Polymerase from Thermococcus sp. 9°N Reveals Mechanisms for Archaeal Genomic Replication and Maintenance” (The Journal of Biological Chemistry, 2015).

In experiment [1] the target is T1, 9°N polD^− (exonuclease-deficient polD mutant H554A).
T1 construct: gene polC; recombinant purified heterodimer of large and small subunit, ~1:1; with DNA polymerase II small subunit
Nature of the experiment: pre-steady-state single-turnover nucleotide incorporation, rapid chemical quench, capillary electrophoresis. In kind it is biochemical, Thermococcus sp. 9°N. The settings on record: apparent Kd, correct pairing, 2 mM MgSO4, ThermoPol buffer pH 8.8 (at 25 °C), 60 °C.

Experiment [2] has the same target. Nature of the experiment: pre-steady-state single-turnover nucleotide incorporation, rapid chemical quench, denaturing gel electrophoresis. In kind it is biochemical, Thermococcus sp. 9°N. Particulars: apparent Kd; correct pairing, template G with 5'-FAM 50-mer primer; 2 mM MgSO4, ThermoPol buffer pH 8.8 (at 25 °C), 60 °C.
Experimental: pre-steady-state single-turnover nucleotide incorporation, rapid chemical quench, denaturing gel electrophoresis on 9°N polD^− (exonuclease-deficient polD mutant H554A)

Consider `Nc1ncnc2c1ncn2[C@H]1C[C@H](O)[C@@H](COP(=O)(O)OP(=O)(O)OP(=O)(O)O)O1` [dATP], for which the Kd in experiment [1] (template T with 5'-FAM 50-mer primer) came out at 2500 ± 100 nM.

On to `Nc1ccn([C@H]2C[C@H](O)[C@@H](COP(=O)(O)OP(=O)(O)OP(=O)(O)O)O2)c(=O)n1` [dCTP], for which the Kd in experiment [2] amounted to 1700 ± 100 nM.

Turning to `Nc1nc2c(ncn2[C@H]2C[C@H](O)[C@@H](COP(=O)(O)OP(=O)(O)OP(=O)(O)O)O2)c(=O)[nH]1` [dGTP], in experiment [1] (template C with 5'-FAM 50-mer primer), the Kd is 900 ± 300 nM.

Regarding `Cc1cn([C@H]2C[C@H](O)[C@@H](COP(=O)(O)OP(=O)(O)OP(=O)(O)O)O2)c(=O)[nH]c1=O` [dTTP], the Kd in experiment [1] (A Template-1 with 5'-FAM 50-mer primer) turned out to be 1600 ± 100 nM.
